Measured values published in patent US11066447B2, “Aureobasidium derivatives and methods of synthesis” (AureoGen Biosciences, Inc., priority 2016, dated 2021).
Converted amounts (≈) assume the structure as drawn. “And” between values parts separate entries of the source, which are not always exact repeats. Identical values can stand only once. Like-named read-outs stand apart in the source and are kept apart here. Numbered stars: 1 amine (or outer) side, 2 acyl side, 3 side chain; on linkers, the order of the positions; unused ones are H or OH. Square brackets hold non-standard residues; d marks the D form. Peptide text beside a SMILES is read from it. ξ: configuration not given here. X8 = CC(=O)N1CCN(c2ccc(-c3cccc(C[C@@H](C(=O)[*:2])N(C)[*:1])c3)cn2)CC1; X1 = CC(C)N1CCN(c2ccc(-c3cccc(C[C@@H](C(=O)[*:2])N(C)[*:1])c3)cc2)CC1; X7 = CC(C)N1CCN(c2ccc(-c3cccc(C[C@H](N[*:1])C(=O)[*:2])c3)cc2)CC1; X9 = CN1CCN(c2cccc(-c3cccc(C[C@@H](C(=O)[*:2])N(C)[*:1])c3)n2)CC1; X10 = CN([C@@H](Cc1cccc(-c2ccc(N3CCNCC3)nc2)c1)C(=O)[*:2])[*:1]; NMePhe(3-(3-pyridyl)) = CN[C@@H](Cc1cccc(-c2cccnc2)c1)C(=O)O; X36 = CN([C@@H](Cc1ccc(-c2cccnc2)cc1)C(=O)[*:2])[*:1]; Hmp(2R,3S) = CC[C@H](C)[C@@H](O)C(=O)O; NMeVal(β-OH) = CN[C@H](C(=O)O)C(C)(C)O; X6 = CCC(C)[C@@H](O[*:1])C(=O)[*:2]; ξNMeVal(3-OH) = CNC(C(=O)O)C(C)(C)O; Ile(3ξ) = CCC(C)[C@H](N)C(=O)O; NMeV = CN[C@H](C(=O)O)C(C)C; ξL = CC(C)CC(N)C(=O)O

Assays:
[1] = tested on: C. albicans MMX 2000 ATCC 10231; assay: MIC assay (CLSI microdilution); format: cell-based; conditions: Candida albicans, ATCC10231, RPMI plus 0.002% Tween-80; read-out: MIC
[2] = tested on: C. neoformans MMX 0634 ATCC 90112; assay: MIC assay (CLSI microdilution); format: cell-based; conditions: Cryptococcus neoformans, ATCC90112, 72 h, 72 hour; RPMI plus 0.002% Tween-80; read-out: MIC
[3] = tested on: C. albicans MMX 2000 ATCC 10231; assay: MIC assay (CLSI microdilution); format: cell-based; conditions: Candida albicans, ATCC10231, Without Tween-80; read-out: MIC
[4] = tested on: A. fumigatus from Aureogen; assay: MIC/MEC assay (CLSI microdilution); format: cell-based; conditions: Aspergillus fumigatus, 48 h; for minimal effective concentration: RPMI plus 0.002% Tween-80; for MIC: RPMI plus 0.002% Tween-80, read-out: MIC
How it was run: (§1)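 Test agents were assayed by CLSI broth microdilution in Tween-80-supplemented (0.002%) RPMI-1640 against spore inocula of approximately 0.2-2.5×10^4 CFU/mL. Strain MMX 5280 was run both with and without Tween-80.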

[5] = tested on: A. flavus MMX 5948; assay: MIC/MEC assay (CLSI microdilution); format: cell-based; conditions: Aspergillus flavus, MMX5948, 48 h; for minimal effective concentration: RPMI plus 0.002% Tween-80; for MIC: RPMI plus 0.002% Tween-80, read-out: MIC
How it was run: as §1

[6] = tested on: A. niger MMX 0624 ATCC 16888; assay: MIC/MEC assay (CLSI microdilution); format: cell-based; conditions: Aspergillus niger, ATCC16888, 48 h; for minimal effective concentration: RPMI plus 0.002% Tween-80, read-out: MEC; for MIC: RPMI plus 0.002% Tween-80, read-out: MIC
How it was run: as §1

[7] = tested on: A. fumigatus MMX 5944; assay: MIC/MEC assay (CLSI microdilution); format: cell-based; conditions: Aspergillus fumigatus, MMX5944, 48 h; for minimal effective concentration: RPMI plus 0.002% Tween-80; for MIC: RPMI plus 0.002% Tween-80, read-out: MIC
How it was run: as §1

[8] = tested on: A. fumigatus MMX 6782 ATCC 13073; assay: MIC/MEC assay (CLSI microdilution); format: cell-based; conditions: for minimal effective concentration: RPMI plus 0.002% Tween-80, read-out: MEC
How it was run: as §1

[9] = tested on: A. fumigatus MMX 6781 ATCC MYA-4609; assay: MIC/MEC assay (CLSI microdilution); format: cell-based
How it was run: as §1

[10] = tested on: C. parapsilosis MMX 2323 ATCC 22019; assay: MIC assay (CLSI microdilution); format: cell-based, Candida parapsilosis; conditions: read-out: MIC
How it was run: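 Broth microdilution MIC testing of Candida parapsilosis ATCC 22019 followed CLSI methods in RPMI-1640, with or without 0.002% Tween-80. Yeast grown 48 hours at 35° C on Sabouraud dextrose agar was suspended to a 0.5 McFarland standard and diluted 1:100 to roughly 0.5-2.5×10^3 CFU/mL. The MIC was the lowest concentration preventing visible growth.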

[11] = tested on: A. fumigatus MMX 5280 ATCC MYA-3626; assay: MIC/MEC assay (CLSI microdilution); format: cell-based, Aspergillus fumigatus
How it was run: as §1

[12] = tested on: A. fumigates; assay: Antifungal activity of separated positional isomers of Compound X; format: cell-based
Description: Test Procedure. The MIC assay method followed the procedure described by CLSI (1, 2) and employed automated liquid handlers to conduct serial dilutions and liquid transfers. Automated liquid handlers included the Multidrop 384 (Labsystems, Helsinki, Finland), Biomek 2000 and Biomek FX (Beckman Coulter, Fullerton Calif.). The wells in columns 2-12 in standard 96-well microdilution plates (Costar 3795) were filled with 150 μl of the appropriate diluent (95% EtOH for investigational compounds, 100% DMSO for amphotericin B). These assay plates would become the ‘mother plates’ from which the assay ‘daughter plates’ would be prepared. The drugs (300 μL at 40× the desired top concentration in the test plates) were dispensed into the appropriate well in Column 1 of the mother plates. The Biomek 2000 was used to make two-fold serial dilutions through Column 11 in the “mother plate”. The wells of Column 12 contained no drug and served as the organism growth control wells.
The microplates were viewed from the bottom using a plate viewer. […] The MIC was read and recorded as the lowest concentration of drug that inhibited visible growth of the organism. MECs were read where the growth shifted to a small, rounded, compact hyphal form as compared to the hyphal growth seen in the growth control well. […]

[13] = Aspergillus fumigatus, ATCC13073, 48 h
[14] = Aspergillus fumigatus, ATCC13073, 48 h, RPMI plus 0.002% Tween-80, read-out: MIC
[15] = RPMI plus 0.002% Tween-80, 48 hr
[16] = ATCC22019, RPMI plus 0.002% Tween-80
[17] = Aspergillus fumigatus, 48 h, Without Tween-80, read-out: MIC
[18] = Aspergillus fumigatus, 48 h, RPMI plus 0.002% Tween-80, read-out: MEC
[19] = Aspergillus fumigatus, 48 h, RPMI plus 0.002% Tween-80, read-out: MIC
[20] = Aspergillus fumigatus, RPMI plus 0.002% Tween-80, 48 hr
[21] = Aspergillus fumigatus, 48 h, Without Tween-80, read-out: MEC

Structure (SMILES)	MIC [1] [µg/mL]	MIC [2] [µg/mL]	MIC [3] [µg/mL]	MIC [4] [µg/mL]	MIC [5] [µg/mL]	MIC [6] [µg/mL]	MIC [7] [µg/mL]	MIC [8, 14] [µg/mL]	MIC [9, 15] [µg/mL]	MIC [10, 16] [µg/mL]	MIC ([10]; ATCC22019, Without Tween-80) [µg/mL]	MIC [11, 17] [µg/mL]	MIC [11, 19] [µg/mL]	minimal effective concentration [4] [µg/mL]	minimal effective concentration [5] [µg/mL]	minimal effective concentration [6] [µg/mL]	minimal effective concentration [7] [µg/mL]	minimal effective concentration [8, 13] [µg/mL]	MEC [9, 15] [µg/mL]	minimal effective concentration [11, 18] [µg/mL]	other results
CCC(C)[C@@H]1NC(=O)[C@@H]2CCCN2C(=O)[C@H](Cc2cccc(-c3cccnc3)c2)N(C)C(=O)[C@H](Cc2ccccc2)NC(=O)[C@H](C(C)C)N(C)C(=O)[C@@H](C(C)CC)OC(=O)C(C(C)(C)O)N(C)C(=O)C(CC(C)C)NC(=O)[C@H](C(C)C)N(C)C1=O (stereo partly drawn) [meta-substituted positional isomer of Compound X] (cyclo(F[NMePhe(3-(3-pyridyl))]P[Ile(3ξ)][NMeV][ξL][ξNMeVal(3-OH)][X6][NMeV]))	–	–	–	–	–	–	–	–	–	–	–	–	–	–	–	–	–	–	–	–	MIC [12]: 0.6 µg/mL (≈ 0.509 µM)
CCC(C)[C@@H]1NC(=O)[C@@H]2CCCN2C(=O)[C@H](Cc2ccc(-c3cccnc3)cc2)N(C)C(=O)[C@H](Cc2ccccc2)NC(=O)[C@H](C(C)C)N(C)C(=O)[C@@H](C(C)CC)OC(=O)C(C(C)(C)O)N(C)C(=O)C(CC(C)C)NC(=O)[C@H](C(C)C)N(C)C1=O (stereo partly drawn) [para substituted positional isomer of Compound X] (cyclo(F[X36]P[Ile(3ξ)][NMeV][ξL][ξNMeVal(3-OH)][X6][NMeV]))	–	–	–	–	–	–	–	–	–	–	–	–	–	–	–	–	–	–	–	–	MIC [12]: > 2.5 µg/mL

Second part, led by results:

MIC [1] [µg/mL]	MIC [2] [µg/mL]	MIC [3] [µg/mL]	MIC [4] [µg/mL]	MIC [5] [µg/mL]	MIC [6] [µg/mL]	MIC [7] [µg/mL]	MIC [8, 14] [µg/mL]	MIC [9, 15] [µg/mL]	MIC [10, 16] [µg/mL]	MIC ([10]; ATCC22019, Without Tween-80) [µg/mL]	MIC [11, 17] [µg/mL]	MIC [11, 19] [µg/mL]	Structure (SMILES)	minimal effective concentration [4] [µg/mL]	minimal effective concentration [5] [µg/mL]	minimal effective concentration [6] [µg/mL]	minimal effective concentration [7] [µg/mL]	minimal effective concentration [8, 13] [µg/mL]	MEC [9, 15] [µg/mL]	minimal effective concentration [11, 18] [µg/mL]	other results
0.015	0.25	0.5 (≈ 0.396 µM)	1	0.5	0.5	1	2	2	0.06	2 (≈ 1.58 µM)	2 (≈ 1.58 µM)	–	CC[C@H](C)[C@@H]1NC(=O)[C@@H]2CCCN2C(=O)[C@H](Cc2cccc(-c3ccc(N4CCNCC4)nc3)c2)N(C)C(=O)[C@H](Cc2ccccc2)NC(=O)[C@H](C(C)C)N(C)C(=O)[C@@H]([C@@H](C)CC)OC(=O)[C@H](C(C)(C)O)N(C)C(=O)[C@H](CC(C)C)NC(=O)[C@H](C(C)C)N(C)C1=O [Compound 30] (cyclo(F[X10]PI[NMeV]L[NMeVal(β-OH)][Hmp(2R,3S)][NMeV]))	0.5	0.12	0.5	0.5	0.5	1	–	MEC [11, 15]: 1 µg/mL; MIC [11, 15]: 2 µg/mL; MEC ([11]; Without Tween-80, 48 hr): 1 µg/mL
0.06	1	1 (≈ 0.664 µM)	0.5	0.5	1	1	–	2	0.5	2 (≈ 1.33 µM)	1 (≈ 0.664 µM)	2	CC[C@H](C)[C@@H]1NC(=O)[C@@H]2CCCN2C(=O)[C@H](Cc2cccc(-c3ccc(N4CCN(C(C)C)CC4)cc3)c2)N(C)C(=O)[C@H](Cc2cccc(-c3ccc(N4CCN(C(C)C)CC4)cc3)c2)NC(=O)[C@H](C(C)C)N(C)C(=O)[C@@H]([C@@H](C)CC)OC(=O)[C@H](C(C)(C)O)N(C)C(=O)[C@H](CC(C)C)NC(=O)[C@H](C(C)C)N(C)C1=O [Compound 31] (cyclo(I[NMeV]L[NMeVal(β-OH)][Hmp(2R,3S)][NMeV][X7][X1]P))	0.25	0.12	0.5	0.5	–	1	0.5	MEC [8, 15]: 1 µg/mL; MIC [8, 15]: 2 µg/mL; MEC ([11]; Without Tween-80, 48 hr): 1/1 μg/mL and 1 μg/mL; MIC ([11]; Without Tween-80, 48 hr): 2 µg/mL (≈ 1.33 µM)
0.03	2	2 (≈ 1.53 µM)	> 64	1	1	> 64	> 64	–	0.25	2 (≈ 1.53 µM)	> 64	> 64	CC[C@H](C)[C@@H]1NC(=O)[C@@H]2CCCN2C(=O)[C@H](Cc2cccc(-c3ccc(N4CCN(C(C)=O)CC4)nc3)c2)N(C)C(=O)[C@H](Cc2ccccc2)NC(=O)[C@H](C(C)C)N(C)C(=O)[C@@H]([C@@H](C)CC)OC(=O)[C@H](C(C)(C)O)N(C)C(=O)[C@H](CC(C)C)NC(=O)[C@H](C(C)C)N(C)C1=O [Compound 32] (cyclo(F[X8]PI[NMeV]L[NMeVal(β-OH)][Hmp(2R,3S)][NMeV]))	> 64	0.25	0.5	1	> 64	–	2	MIC [9, 19]: > 64 µg/mL; minimal effective concentration [9, 20]: > 64 µg/mL; minimal effective concentration [11, 21]: > 64 µg/mL
0.004	0.06	0.5 (≈ 0.392 µM)	0.06	0.5	0.03	0.5	0.12	–	0.03	0.5 (≈ 0.392 µM)	1 (≈ 0.783 µM)	0.25	CC[C@H](C)[C@@H]1NC(=O)[C@@H]2CCCN2C(=O)[C@H](Cc2cccc(-c3cccc(N4CCN(C)CC4)n3)c2)N(C)C(=O)[C@H](Cc2ccccc2)NC(=O)[C@H](C(C)C)N(C)C(=O)[C@@H]([C@@H](C)CC)OC(=O)[C@H](C(C)(C)O)N(C)C(=O)[C@H](CC(C)C)NC(=O)[C@H](C(C)C)N(C)C1=O [Compound 33] (cyclo(F[X9]PI[NMeV]L[NMeVal(β-OH)][Hmp(2R,3S)][NMeV]))	0.06	0.12	0.03	0.5	0.06	–	0.015	MIC [9, 19]: 0.12 µg/mL; minimal effective concentration [9, 20]: 0.03 µg/mL; minimal effective concentration [11, 21]: 0.5 µg/mL
